Assay results published in patent US10660910B2, “Use of sedoheptulose for prevention or treatment of inflammation” (C7 SUGAR GMBH, priority 2013, dated 2020).

Assays:
Assay type in all cases: cell-based, mouse
[1] = tested on: primary murine hepatocytes; assay: Primary murine hepatocyte culture, IL-6 mRNA by RT-PCR; conditions: pre-cultured two days in GFS vs GF media, FIG. 3H
Experimental: Hepatocytes were isolated from male wild-type and CARKL overexpressing mice after the mice were sacrificed by hepatic in situ collagenase perfusion. After perfusion, the liver was quickly removed, minced, and filtered through a cell strainer (Fisher Scientific, Inc) into a 50 ml sterile tube. Hepatocytes in the resulting filtrate were purified from the nonparenchymal cells by centrifugation steps. The isolated hepatocytes were seeded into plates at a concentration of 0.25×10^6/ml in respective DMEM-media containing 10% FBS and indicated carbohydrate mixes at 3 g/L (glucose and fructose (GF), or glucose, fructose and sedoheptulose (GFS)) at least two days before experiments were performed.
(§1) Briefly, total RNA was extracted and reverse-transcribed using commercial kits (QIAGEN, Applied Biosystems). Quantitative real-time PCRs were performed on an AbiPRISM 7900HT real-time cycler using iTaq SYBR Green Supermix with ROX (BioRad) to measure CARKL, adiponectin, UCP-1, TNFa, IL-6, MCP-1, and beta-actin expression as previously described (Haschemi et al., Cell Metab. 15 (2012), 813-826). Expression of target gene was normalized to beta-actin expression. Relative expression of target gene was calculated by the delta-delta CT method.

[2] = tested on: primary bone marrow derived macrophages; assay: Bone marrow derived macrophages, basal cytokine mRNA (RT-PCR) and secretion (ELISA)
Experimental: FIG. 3: (A-E) Primary human adipocytes were obtained by differentiation of the stromal vascular cell fraction in the presence of glucose and fructose (GF, 1.5 g/L of each sugar; total carbohydrates 3 g/L) or sedoheptulose supplemented media, which was termed GFS (1 g/L of each sugar; total carbohydrates 3 g/L), for eight days. Subsequently mRNA levels of (A) CARKL, (B) adiponectin and (C) uncoupling protein 1 (UCP-1) was assessed by RT-PCR and compared between the groups. (D) Cellular oxygen consumption rates (OCR) and (E) extracellular acidification rates (ECAR) of adipocytes were recorded in the presence of indicated carbohydrate-mix (mean+/−S.D., n=9-11). (F) Tumor necrosis factor alpha (TNFa) and (G) interleukin 6 (IL-6) mRNA expression levels of mature murine adipocytes cultivated for three days in cell culture media containing either GF or GFS carbohydrate mix, or (H) IL-6 expression in primary murine hepatocytes, as well as (I) TNFa and (J) IL-6 mRNA levels in primary bone marrow derived macrophages, both cell types were pre-cultured for two days in GF or GFS media, were compared between respective groups. Secretion of (K) TNFa and (L) IL-6 cytokines over the period of two days was measured by ELISA in the supernatant of bone marrow derived macrophages. LPS-induced (100 ng/ml) secretion of (M) TNFa 2 hrs after activation and (N) IL-6 6 hrs after activation in the respective media by macrophages was also measured by ELISA. Data represents mean+/−S.D., n=3)
Mouse bones were isolated from male wild-type and CARKL overexpressing mice and bone marrow wash flushed, washed and cleared from redblood cells by lysis, and subsequently differentiated in DMEM containing 25 mM glucose and 20 ng/ml M-CSF. After 4 days, cells for osteoclast differentiation were harvested and seeded in corning osteo assay plates with differentiation media (see below), and for primary bone marrow derived macrophages (BMDM) the medium was renewed and further supplemented with M-SCF for two days. Differentiated BMDM were then seeded in respective DMEM-media containing 10% FBS and indicated carbohydrate mixes at 3 g/L (glucose and fructose (GF), or glucose, fructose and sedoheptulose (GFS)) at least two days before experiments were performed.
as §1

[3] = tested on: Glucose-6-phosphate dehydrogenase (G6PD) in hepatocytes; assay: Glucose-6-phosphate dehydrogenase activity assay (enzyme histochemistry) in hepatocytes; conditions: WT cells incubated in cell culture media with sedoheptulose; compared with phenotype of CARKL overexpressing cells; data not shown
Experimental: Hepatocytes were isolated from male wild-type and CARKL overexpressing mice after the mice were sacrificed by hepatic in situ collagenase perfusion. After perfusion, the liver was quickly removed, minced, and filtered through a cell strainer (Fisher Scientific, Inc) into a 50 ml sterile tube. Hepatocytes in the resulting filtrate were purified from the nonparenchymal cells by centrifugation steps. The isolated hepatocytes were seeded into plates at a concentration of 0.25×10^6/ml in respective DMEM-media containing 10% FBS and indicated carbohydrate mixes at 3 g/L (glucose and fructose (GF), or glucose, fructose and sedoheptulose (GFS)) at least two days before experiments were performed. Cells were grown on polystyrene vessel tissue culture treated glass slides, snap frozen in liquid nitrogen and kept at −80° C. The enzyme histochemical procedure was based on the tetrazolium salt method as described by Van Noorden and Frederiks. […] The medium was freshly prepared immediately before incubation. Control reactions additionally contained 40 mM glucosamine-6-phosphate. Cells were incubated at room temperature for 15 minutes under continuous mixing by orbital shaker. After incubation, cells were washed 3×5 minutes in […] phosphate buffered saline, dried, and mounted in glycerol gelatin, and photographed within one day at ×10 magnification.

O=C(CO)[C@@H](O)[C@H](O)[C@H](O)[C@H](O)CO [sedoheptulose, Sedoheptulose]
IL-6 expression [1]: less
basal TNFa mRNA expression ([2]; pre-cultured two days in GFS vs GF media, FIG. 3I): blocked
basal IL-6 mRNA expression ([2]; pre-cultured two days in GFS vs GF media, FIG. 3J): blocked
basal TNFa cytokine secretion ([2]; supernatant over two days, ELISA, GFS vs GF media, FIG. 3K): blocked
basal IL-6 cytokine secretion ([2]; supernatant over two days, ELISA, GFS vs GF media, FIG. 3L): blocked
G6PD activity distribution (re-localization of G6PD, reduced activity in the inner space of the cells) [3]: same phenotype
